# In US6667333B2, “Herbicidal 3-(4,5 dihydroisoxazole- 3 yl) substituted benzoycyclohexenone derivatives” (BASF Aktiengesellschaft, priority 1999, dated 2003):
# Tests used:
# Abutilon theophrasti = assay: greenhouse post-emergence herbicidal test; assay type: in vivo, Abutilon theophrasti (velvet leaf); details: application rates of 0.25 or 0.125 kg/ha, 2 to 4 weeks
# Source text: (§1) The cultivation containers used were plastic flower pots containing loamy sand with approximately 3.0% of humus as the substrate. The seeds of the test plants were sown separately for each species.
# (§2) For the post-emergence treatment, the test plants were first grown to a height of from 3 to 15 cm, depending on the plant habit, and only then treated with the active compounds which had been suspended or emulsified in water. The test plants were for this purpose either sown directly and grown in the same containers, or they were first grown separately as seedlings and transplanted into the test containers a few days prior to treatment. The application rate for the post-emergence treatment was 0.25 or 0.125 kg of a.s. (active substance)/ha.
# (§3) Depending on the species, the plants were kept at 10-25° C. or 20-35° C. The test period extended over 2 to 4 weeks. During this time, the plants were tended, and their response to the individual treatments was evaluated.
# (§4) The evaluation was carried out using a scale from 0 to 100. 100 means no emergence of the plants, or complete destruction of at least the aerial parts and 0 means no damage, or normal course of growth.
# (§5) The plants used in the greenhouse experiments were of the following species: […]
# Chenopodium album = assay: greenhouse post-emergence herbicidal test; assay type: in vivo, Chenopodium album (lamb's-quarters); details: application rates of 0.25 or 0.125 kg/ha, 2 to 4 weeks
# Source text: as §1, §2, §3, §4, §5
# Avena fatua = assay: greenhouse post-emergence herbicidal test; assay type: in vivo, Avena fatua (wild oat); details: application rates of 0.25 or 0.125 kg/ha, 2 to 4 weeks
# Source text: as §1, §2, §3, §4, §5
# Polygonum persicaria = assay: greenhouse post-emergence herbicidal test; assay type: in vivo, Polygonum persicaria (lady's-thumb); details: application rates of 0.25 or 0.125 kg/ha, 2 to 4 weeks
# Source text: as §1, §2, §3, §4, §5
# Echinochloa crus galli = assay: greenhouse post-emergence herbicidal test; assay type: in vivo, Echinochloa crus galli (barnyardgrass); details: application rates of 0.25 or 0.125 kg/ha, 2 to 4 weeks
# Source text: as §1, §2, §3, §4, §5
# Brachiaria plantaginea = assay: greenhouse post-emergence herbicidal test; assay type: in vivo, Brachiaria plantaginea (alexandergrass); details: application rates of 0.25 or 0.125 kg/ha, 2 to 4 weeks
# Source text: as §1, §2, §3, §4, §5
SMILES,melting point [°C],further results
"Cc1c(C(=O)C2=C(O)C(C)CC(C)C2=O)ccc(S(C)(=O)=O)c1C1=NOC2CC12 (centres unmarked) [Compound 2.3, 2-[2-Methyl-3-(2-oxa-3-azabicyclo[3.1.0]hex-3-en-4-yl)-4-methylsulfonylbenzoyl]-1-hydroxy-4,6-dimethylcyclohex-1-en-3-one]",90 to 96,–
Cc1c(C(=O)C2=C(O)CC(C)(C)CC2=O)ccc(S(C)(=O)=O)c1C1=NOC2CC12 (centres unmarked) [Compound 2.1],102,post-emergence action (Abutilon theophrasti): very good; post-emergence action (Chenopodium album): very good; post-emergence action (Avena fatua): very good; post-emergence action (Polygonum persicaria): very good; post-emergence action (Echinochloa crus galli): very good; post-emergence action (Brachiaria plantaginea): very good
CSC1(C)CCC(=O)C(C(=O)c2ccc(S(C)(=O)=O)c(C3=NOC4CC34)c2C)=C1O (centres unmarked) [Compound 2.5],100 to 106,–

# More lines, main results first:
melting point [°C],SMILES,further results
120 to 130,Cc1c(C(=O)C2=C(O)C(C)(C)CCC2=O)ccc(S(C)(=O)=O)c1C1=NOC2(C)CC12 (centres unmarked) [Compound 2.14],–
98 to 112,Cc1c(C(=O)C2=C(O)C(C)CC(C)C2=O)ccc(S(C)(=O)=O)c1C1=NOC2(C)CC12 (centres unmarked) [Compound 2.12],–
112 to 120,Cc1c(C(=O)C2=C(O)CC(C)(C)CC2=O)ccc(S(C)(=O)=O)c1C1=NOC2(C)CC12 (centres unmarked) [Compound 2.8],–
120 to 127,Cc1c(C(=O)C2=C(O)CC(C)(C)CC2=O)ccc(S(C)(=O)=O)c1C1=NOC2CC12C (centres unmarked) [Compound 2.13],–
101 to 105,CC1(C)CC(=O)C(C(=O)c2ccc(S(C)(=O)=O)c(C3=NOC4CC34)c2Cl)=C(O)C1 (centres unmarked) [Compound 2.7],–
